Test results: the supplement of paper PMC10307832

What was measured:
Experiment in all cases: relative viability (nuclei count vs DMSO), 5 days (fraction); higher = more cells survive
[1] = compound: OCc1c[nH]c2ccccc12 [Indole-3-carbinol] + CC(C)C[C@H](NC(=O)[C@H](Cc1ccccc1)NC(=O)c1cnccn1)B(O)O [Bortezomib] (partner 0.002 µM)
Outline: (§1)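 Medians of duplicate plates are given as relative viability. That measure is the nuclei count in treated wells divided by the count in vehicle wells. Counts were taken on 4× images of lung cancer cell lines in 1536-well plates, 5 days after pin-tool dosing the day after seeding with one drug alone or a fixed anchor-drug dose plus five library-drug doses (not always all listed) in √10 steps.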

[2] = compound: OCc1c[nH]c2ccccc12 [Indole-3-carbinol] + CS(=O)(=O)N1CCN(Cc2cc3nc(-c4cccc5[nH]ncc45)nc(N4CCOCC4)c3s2)CC1 [Pictilisib] (partner 1 µM)
Outline: as §1

[3] = compound: OCc1c[nH]c2ccccc12 [Indole-3-carbinol] + Cc1nc(NC(=O)N2CCC[C@H]2C(N)=O)sc1-c1ccnc(C(C)(C)C(F)(F)F)c1 [Alpelisib] (partner 2 µM)
Outline: as §1

[4] = compound: OCc1c[nH]c2ccccc12 [Indole-3-carbinol] + C[C@]1(O)C[C@@H](c2nc(-c3ccc4ccc(-c5ccccc5)nc4c3)c3c(N)nccn32)C1 [Linsitinib] (partner 1 µM)
Outline: as §1

[5] = compound: OCc1c[nH]c2ccccc12 [Indole-3-carbinol] + C[C@@H](Oc1cc(-c2cnn(C3CCNCC3)c2)cnc1N)c1c(Cl)ccc(F)c1Cl [Crizotinib] (partner 1 µM)
Outline: as §1

Row | Cell Line | relative viability ([1]; first compound 0.253 µM) | relative viability ([1]; first compound 0.8 µM) | relative viability ([1]; first compound 2.53 µM) | relative viability ([1]; first compound 8 µM) | relative viability ([2]; first compound 0.253 µM) | relative viability ([2]; first compound 0.8 µM) | relative viability ([2]; first compound 2.53 µM) | relative viability ([2]; first compound 8 µM) | relative viability ([3]; first compound 0.253 µM) | relative viability ([3]; first compound 0.8 µM) | relative viability ([3]; first compound 2.53 µM) | relative viability ([3]; first compound 8 µM) | relative viability ([4]; first compound 0.253 µM) | relative viability ([4]; first compound 0.8 µM) | relative viability ([4]; first compound 2.53 µM) | relative viability ([4]; first compound 8 µM) | relative viability ([5]; first compound 0.253 µM) | relative viability ([5]; first compound 0.8 µM) | relative viability ([5]; first compound 2.53 µM) | relative viability ([5]; first compound 8 µM)
1 | NCI-H2087 | 0.815 | 0.967 | 0.963 | 0.678 | 0.726 | 1.07 | 0.91 | 0.833 | 0.807 | 1.15 | 1.01 | 0.942 | 1.07 | 1.04 | 1.01 | 0.915 | 1.01 | 0.997 | 1.1 | 0.88
2 | NCI-H2126 | 1.11 | 1.11 | 1.1 | 1.1 | 0.469 | 0.483 | 0.518 | 0.498 | 0.751 | 0.808 | 0.714 | 0.764 | 0.694 | 0.715 | 0.68 | 0.702 | 1.01 | 1.05 | 1.02 | 1.03
3 | NCI-H2228 | 1.17 | 0.876 | 0.914 | 0.911 | 0.514 | 0.374 | 0.349 | 0.506 | 0.697 | 0.902 | 0.779 | 0.629 | 0.513 | 0.934 | 0.96 | 0.604 | 0.582 | 0.461 | 0.567 | 0.454
4 | NCI-H2347 | 1.2 |  | 0.926 | 0.868 | 0.673 | 0.532 | 0.719 | 0.599 | 1.06 | 1.08 | 1.14 | 0.868 | 0.986 | 1.06 | 1.04 | 0.793 | 0.747 | 0.607 | 0.706 | 0.671
5 | NCI-H2405 | 0.985 | 0.983 | 1 | 0.963 | 0.49 | 0.472 | 0.489 | 0.483 | 0.901 | 0.661 | 0.988 | 0.749 | 0.945 | 0.805 | 0.903 | 0.89 | 0.875 | 0.825 | 0.901 | 0.78
6 | NCI-H3122 | 1.01 | 1.04 | 1.07 | 1.04 | 0.553 | 0.673 | 0.592 | 0.588 | 0.878 | 0.879 | 0.855 | 0.74 | 1.02 | 1.03 | 1.07 | 1.04 | 0.289 | 0.293 | 0.281 | 0.292
7 | PC-3 [JPC-3] | 0.851 | 0.89 | 0.863 | 0.741 | 0.817 | 0.801 | 0.649 | 0.73 | 1.08 | 1.13 | 1.03 | 0.967 | 0.948 | 0.985 | 0.922 | 0.887 | 0.946 | 1.08 | 0.997 | 0.969
8 | PC-14 | 0.878 | 0.971 | 0.85 | 0.874 | 0.738 | 0.875 | 0.735 | 0.652 | 0.995 | 0.955 | 0.888 | 0.93 | 0.943 | 0.882 | 0.891 | 0.903 | 0.936 | 1.04 | 0.903 | 0.883
9 | RERF-LC-KJ | 1.19 | 1.08 | 1.13 | 1.04 | 0.512 | 0.541 | 0.562 | 0.581 | 0.841 | 0.783 | 0.814 | 0.83 | 0.961 | 0.943 | 0.868 | 0.825 | 0.862 | 0.917 | 0.84 | 0.793
10 | SK-LU-1 | 1.32 | 1.03 | 1.35 | 0.987 | 0.568 | 0.405 | 0.522 | 0.551 | 1.01 | 1.03 | 1.07 | 0.99 | 1.05 | 1.19 | 1.09 | 1.02 | 1.01 | 1.01 | 0.989 | 0.823
11 | SW 1573 | 1.15 | 1.18 | 1.12 | 0.997 | 0.361 | 0.577 | 0.544 | 0.425 | 0.724 | 0.833 | 0.822 | 0.761 | 0.77 | 0.898 | 0.932 | 0.754 | 0.722 | 0.936 | 0.833 | 0.678
12 | UMC-11 | 0.748 | 0.726 | 0.757 | 0.904 | 0.792 | 0.836 | 0.764 | 0.789 | 0.933 | 1.02 | 0.981 | 0.955 | 0.937 | 0.983 | 0.963 | 0.967 | 0.589 | 0.708 | 0.696 | 0.577
